Data taken from patent publication US20110313672A1, “CELLULAR ANTIOXIDANT ACTIVITY (CAA) ASSAY” (CORNELL UNIVERSITY, priority 2007, published 2011).

Experiments:
[1] = in vitro; conditions: human
Experimental: (§1) Briefly, HepG2 cells are seeded at 4×10^4/well on a 96-well plate in 100 μL growth medium and incubated for 24 h at 37° C. The medium is removed and the cells are washed with PBS. Treatments of fruit extracts or antioxidant compounds in 100 μL treatment medium (Williams' Medium E supplemented with 2 mM L-glutamine and 10 mM Hepes) are applied to the cells and the plates are incubated at 37° C. for 24 h. The treatment medium is removed and the cells are washed with PBS. A volume of 50 μL/well methylene blue staining solution (98% HBSS, 0.67% glutaraldehyde, 0.6% methylene blue) is applied to each well and the plate is incubated at 37° C. for 1 h.
(§2) Excess dye is removed by immersing the plate in fresh deionized water until the water appears clear. The excess water should be tapped out of the wells and the plate allowed to air-dry briefly before addition of 100 μL elution solution (49% PBS, 50% ethanol, 1% acetic acid) to each well. The microplate is then placed on a bench-top shaker for 20 minutes to allow uniform elution. The absorbance is read at 570 nm with blank subtraction using, for example a MRX II DYNEX spectrophotometer (DYNEX Inc., Chantilly, Va.). Concentrations of pure compounds or fruit extracts that decrease the absorbance by more than 10% when compared to the control are considered to be cytotoxic.
(§3) Cytotoxicity was measured using the method of Oliver et al. (31) with modifications by our laboratory (32). […] The medium was removed and the cells were washed with PBS. Treatments of fruit extracts or antioxidant compounds in 100 μL treatment medium (Williams' Medium E supplemented with 2 mM L-glutamine and 10 mM Hepes) were applied to the cells and the plates were incubated at 37° C. for 24 h. The treatment medium was removed and the cells were washed with PBS. A volume of 50 μL/well methylene blue staining solution (98% HBSS, 0.67% glutaraldehyde, 0.6% methylene blue) was applied to each well and the plate was incubated at 37° C. for 1 h. The dye was removed and the plate was immersed in fresh deionized water three times, or until the water was clear. The water was tapped out of the wells and the plate was allowed to air-dry briefly before 100 μL elution solution (49% PBS, 50% ethanol, 1% acetic acid) was added to each well. The microplate was placed on a bench-top shaker for 20 minutes to allow uniform elution. The absorbance was read at 570 nm with blank subtraction using the MRX II DYNEX spectrophotometer (DYNEX Inc., Chantilly, Va.). Concentrations of pure compounds or fruit extracts that decreased the absorbance by more than 10% when compared to the control were considered to be cytotoxic.
(§4) The median cytotoxic concentration (CC50) was calculated for each fruit.
(§5) Briefly, HepG2 cells were seeded at 4×10^4/well on a 96-well plate in 100 μL growth medium and incubated for 24 h at 37° C. The medium was removed, and the cells were washed with PBS. Flavonoids in 100 μL growth medium were applied to the cells, and the plates were incubated at 37° C. for 24 h. The medium was removed, and the cells were washed with PBS before a volume of 50 μL/well methylene blue staining solution (98% HBSS, 0.67% glutaraldehyde, 0.6% methylene blue) was applied to each well, and the plate was incubated at 37° C. for 1 h. The dye was removed, and the plate was immersed in fresh deionized water until the water was clear. The water was tapped out of the wells, and the plate was allowed to air-dry briefly before 100 μL of elution solution (49% PBS, 50% ethanol, 1% acetic acid) was added to each well. The microplate was placed on a benchtop shaker for 20 min to allow uniform
(§6) elution. The absorbance was read at 570 nm with blank subtraction using the MRX II Dynex spectrophotometer (Dynex Inc., Chantilly, Va.). The median cytotoxic concentration (CC50) was calculated for each flavonoid.

[2] = system: HepG2 cells; experiment: in vitro; conditions: for CC50: read-out: cytotoxicity CC50, Example 3, median cytotoxic concentration
Experimental: as §1, §2, §3, §4, §5, §6

[3] = Example 1, dose at which the cell number is reduced by more than 10% after 24 h treatment

| Molecule | CC50 at 24 h [1] | Cytotoxicity (cytotoxic concentration) ([2]; human, 24 h) | CC50 at 24 h ([1]; HepG2 cells) | other results |
| --- | --- | --- | --- | --- |
| O=C(O[C@@H]1Cc2c(O)cc(O)cc2O[C@@H]1c1ccc(O)c(O)c1)c1cc(O)c(O)c(O)c1 [ECG, (−)-epicatechin gallate] | > 200 µM |  |  |  |
| Oc1cc(O)c2c(c1)O[C@H](c1cc(O)c(O)c(O)c1)[C@H](O)C2 [EGC, (−)-epigallocatechin] | > 200 µM |  |  |  |
| O=c1c(O)c(-c2ccc(O)cc2)oc2cc(O)cc(O)c12 [Kaempferol, kaempferol] | > 100 µM | 30 µM |  |  |
| O=c1cc(-c2ccc(O)c(O)c2)oc2cc(O)cc(O)c12 [Luteolin, luteolin] | > 80 µM | 20 µM |  |  |
| O=c1c(O)c(-c2cc(O)c(O)c(O)c2)oc2cc(O)cc(O)c12 [Myricetin, myricetin] | > 200 µM | 200 µM |  |  |
| O=c1c(O[C@@H]2O[C@H](CO)[C@@H](O)[C@H](O)[C@H]2O)c(-c2ccc(O)c(O)c2)oc2cc(O)cc(O)c12 [Q-3-G, quercetin-3-β-D-glucoside] |  |  |  | CC50 ([2]; 24 h): > 200 µM |
| O=c1c(O)c(-c2ccc(O)c(O)c2)oc2cc(O)cc(O)c12 [Quercetin, quercetin] | > 100 µM | >20 µM |  |  |
| O=C1c2c(O)cc(O)cc2O[C@H](c2ccc(O)c(O)c2)[C@H]1O [Taxifolin, taxifolin] |  |  | > 200 µM | Cytotoxicity (cytotoxic concentration) [2, 3]: 150 µM |
| O=c1c(O)c(-c2ccccc2)oc2cc(O)cc(O)c12 [galangin] |  |  | > 80 µM |  |
| O=c1c(-c2ccc(O)cc2)coc2cc(O)cc(O)c12 [genistein] | > 100 µM |  |  |  |
| O=c1c(O)c(-c2ccc(O)cc2O)oc2cc(O)cc(O)c12 [morin] |  |  | > 200 µM |  |
| O=C1C[C@@H](c2ccc(O)cc2)Oc2cc(O)cc(O)c21 [naringenin] |  |  | > 200 µM |  |
| (−)-epigallocatechin gallate [EGCG] |  |  |  | Cytotoxicity (cytotoxic concentration) [2, 3]: >100 µM; CC50 ([2]; 24 h): > 100 µM |
